This note sets out measurements from patent publication US5502035A, “N-terminus modified analogs of LHRH” (Tap Holdings Inc., priority 1994, dated 1996).

This test has as its target T1, LHRH (Rattus norvegicus, UniProt P30969).
T1 construct: endogenous in cells; host or cells: rat pituitary cells (own knowledge of the cited Haviv 1989 method)
T1 sequence (P30969 1-327): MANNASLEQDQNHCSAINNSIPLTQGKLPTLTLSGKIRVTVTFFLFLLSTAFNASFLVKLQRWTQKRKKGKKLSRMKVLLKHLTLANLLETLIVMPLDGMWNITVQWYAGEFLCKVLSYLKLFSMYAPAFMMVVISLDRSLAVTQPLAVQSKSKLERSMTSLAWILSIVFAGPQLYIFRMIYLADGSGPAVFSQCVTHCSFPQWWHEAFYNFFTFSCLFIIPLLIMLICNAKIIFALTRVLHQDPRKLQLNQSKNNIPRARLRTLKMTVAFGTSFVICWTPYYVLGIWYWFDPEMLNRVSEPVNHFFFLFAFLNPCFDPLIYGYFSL
As to the kind of experiment: in vitro test for LHRH antagonist potency (pA2). Type of test: cell-based. To be noted: negative logarithm of the antagonist concentration required to shift the response curve produced by the agonist leuprolide to two-fold higher concentration. A digest of the protocol:
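Antagonism read against the agonist leuprolide on rat LHRH receptor; value is pA2, the −log of antagonist concentration that doubles the agonist concentration needed for the same response.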

Non-standard residues stand in square brackets, D forms with d. Residues, ends and D or L forms follow the SMILES beside them. *: point of attachment. dPhe(4-Cl) = N[C@H](Cc1ccc(Cl)cc1)C(=O)O; d2Nal = N[C@H](Cc1ccc2ccccc2c1)C(=O)O; d(hCit) = NC(=O)NCCCC[C@@H](N)C(=O)O; Lys(iPr) = CC(C)NCCCC[C@H](N)C(=O)O; NMeY = CN[C@@H](Cc1ccc(O)cc1)C(=O)O; d3Pal = N[C@H](Cc1cccnc1)C(=O)O; Nicotinoyl = O=C(c1cccnc1)*; X1 = O=C([C@@H]1CCCO1)*

In the case of `CC(C)C[C@H](NC(=O)[C@@H](CCCCNC(=O)c1cccnc1)NC(=O)[C@H](Cc1ccc(O)cc1)N(C)C(=O)[C@@H](CO)NC(=O)[C@@H](Cc1cccnc1)NC(=O)[C@@H](Cc1ccc(Cl)cc1)NC(=O)[C@@H](Cc1ccc2ccccc2c1)NC(=O)CNC(=O)[C@@H]1CCCO1)C(=O)N[C@@H](CCCCNC(C)C)C(=O)N1CCC[C@H]1C(=O)N[C@H](C)C(N)=O` [Example 82, N (S)-2-Tetrahydrofuroyl-Gly-D2Nal-D4ClPhe-D3Pal-DSer-NMeTyr-DLys(N-epsilon-Nicotinyl) -Leu-Lys(N-epsilon-Isopropyl)-Pro-DAlaNH2], the Kb is 1120 pM.

On to `CC(C)C[C@H](NC(=O)[C@@H](CCCCNC(=O)c1cccnc1)NC(=O)[C@H](Cc1ccc(O)cc1)N(C)C(=O)[C@H](CO)NC(=O)[C@H](Cc1cccnc1)NC(=O)[C@@H](Cc1ccc(Cl)cc1)NC(=O)[C@@H](Cc1ccc2ccccc2c1)NC(=O)CNC(=O)[C@@H]1CCCO1)C(=O)N[C@@H](CCCCNC(C)C)C(=O)N1CCC[C@H]1C(=O)N[C@H](C)C(N)=O` [Example 83, N (S)-2-Tetrahydrofuroyl-Gly-D2Nal-D4ClPhe-3Pal-Ser-NMeTyr-DLys(N-epsilon-Nicotinyl) -Leu-Lys(N-epsilon-Isopropyl)-Pro-DAlaNH2], for which the Kb was 11.2 pM. In the case of `CC(C)C[C@H](NC(=O)[C@H](CCCCNC(=O)c1cccnc1)NC(=O)[C@H](Cc1ccc(O)cc1)N(C)C(=O)[C@H](CO)NC(=O)[C@@H](Cc1cccnc1)NC(=O)[C@@H](Cc1ccc(Cl)cc1)NC(=O)[C@@H](Cc1ccc2ccccc2c1)NC(=O)CNC(=O)[C@@H]1CCCO1)C(=O)N[C@@H](CCCCNC(C)C)C(=O)N1CCC[C@H]1C(=O)N[C@H](C)C(N)=O` [Example 85, N (S)-2-Tetrahydrofuroyl-Gly-D2Nal-D4ClPhe-D3Pal-Ser-NMeTyr-Lys(N-epsilon-Nicotinyl) -Leu-Lys(N-epsilon-Isopropyl)-Pro-DAlaNH2], the antagonist equilibrium constant (Kb) is 11.2 pM.

As to `CC(C)C[C@H](NC(=O)[C@@H](CCCCNC(=O)c1cccnc1)NC(=O)[C@H](Cc1ccc(O)cc1)N(C)C(=O)[C@H](CO)NC(=O)[C@@H](Cc1cccnc1)NC(=O)[C@H](Cc1ccc(Cl)cc1)NC(=O)[C@@H](Cc1ccc2ccccc2c1)NC(=O)CNC(=O)[C@@H]1CCCO1)C(=O)N[C@@H](CCCCNC(C)C)C(=O)N1CCC[C@H]1C(=O)N[C@H](C)C(N)=O` [Example 86, N (S)-2-Tetrahydrofuroyl-Gly-D2Nal-4ClPhe-D3Pal-Ser-NMeTyr-DLys(N-epsilon-Nicotinyl) -Leu-Lys(N-epsilon-Isopropyl)-Pro-DAlaNH2], the antagonist equilibrium constant (Kb) is 141 pM. For `CC(C)C[C@@H](NC(=O)[C@@H](CCCCNC(=O)c1cccnc1)NC(=O)[C@H](Cc1ccc(O)cc1)N(C)C(=O)[C@H](CO)NC(=O)[C@@H](Cc1cccnc1)NC(=O)[C@@H](Cc1ccc(Cl)cc1)NC(=O)[C@@H](Cc1ccc2ccccc2c1)NC(=O)CNC(=O)[C@@H]1CCCO1)C(=O)N[C@@H](CCCCNC(C)C)C(=O)N1CCC[C@H]1C(=O)N[C@H](C)C(N)=O` [Example 87, N (S)-2-Tetrahydrofuroyl-Gly-D2Nal-D4ClPhe-D3Pal-Ser-NMeTyr-DLys(N-epsilon-Nicotinyl) -DLeu-Lys(N-epsilon-Isopropyl)-Pro-DAlaNH2] the value was 269 pM; for `CC(C)C[C@H](NC(=O)[C@@H](CCCCNC(=O)c1cccnc1)NC(=O)[C@H](Cc1ccc(O)cc1)N(C)C(=O)[C@H](CO)NC(=O)[C@@H](Cc1cccnc1)NC(=O)[C@@H](Cc1ccc(Cl)cc1)NC(=O)[C@@H](Cc1ccc2ccccc2c1)NC(=O)CNC(=O)[C@@H]1CCCO1)C(=O)N[C@@H](CCCCNC(C)C)C(=O)N1CCC[C@@H]1C(=O)N[C@H](C)C(N)=O` [Example 88, N (S)-2-Tetrahydrofuroyl-Gly-D2Nal-D4ClPhe-D3Pal-Ser-NMeTyr-DLys(N-epsilon-Nicotinyl) -Leu-Lys(N-epsilon-Isopropyl)-DPro-DAlaNH2], 158 pM; for `CC(C)C[C@H](NC(=O)[C@@H](CCCCNC(=O)c1cccnc1)NC(=O)[C@H](Cc1ccc(O)cc1)N(C)C(=O)[C@H](CO)NC(=O)[C@@H](Cc1cccnc1)NC(=O)[C@@H](Cc1ccc(Cl)cc1)NC(=O)[C@@H](Cc1ccc2ccccc2c1)NC(=O)CNC(=O)[C@@H]1CCCO1)C(=O)N[C@H](CCCCNC(C)C)C(=O)N1CCC[C@H]1C(=O)N[C@H](C)C(N)=O` [Example 89, N (S)-2-Tetrahydrofuroyl-Gly-D2Nal-D4ClPhe-D3Pal-Ser-NMeTyr-DLys(N-epsilon-Nicotinyl) -Leu-DLys(N-epsilon-Isopropyl)-Pro-DAlaNH2], 132 pM. Turning to `CC(C)C[C@H](NC(=O)[C@@H](CCCCNC(=O)c1cccnc1)NC(=O)[C@@H](Cc1ccc(O)cc1)N(C)C(=O)[C@H](CO)NC(=O)[C@@H](Cc1cccnc1)NC(=O)[C@@H](Cc1ccc(Cl)cc1)NC(=O)[C@@H](Cc1ccc2ccccc2c1)NC(=O)CNC(=O)[C@@H]1CCCO1)C(=O)N[C@@H](CCCCNC(C)C)C(=O)N1CCC[C@H]1C(=O)N[C@H](C)C(N)=O` [Example 90, N (S)-2-Tetrahydrofuroyl-Gly-D2Nal-D4ClPhe-D3pal-Ser-DNMeTyr-DLys(N-epsilon-Nicotinyl) -Leu-Lys(N-epsilon-Isopropyl)-pro-DAlaNH2], the antagonist dissociation constant (Kb) was 457 pM. With `CC(C)C[C@H](NC(=O)[C@@H](CCCCNC(N)=O)NC(=O)[C@H](Cc1ccc(O)cc1)N(C)C(=O)[C@H](CO)NC(=O)[C@@H](Cc1cccnc1)NC(=O)[C@@H](Cc1ccc(Cl)cc1)NC(=O)[C@@H](Cc1ccc2ccccc2c1)NC(=O)CNC(=O)[C@@H]1CCCO1)C(=O)N[C@@H](CCCCNC(C)C)C(=O)N1CCC[C@H]1C(=O)N[C@H](C)C(N)=O` [Example 92, N (S)-2-Tetrahydrofuroyl-Gly-D2Nal-D4ClPhe-D3Pal-Ser-NMeTyr-DHcit-Leu-Lys(N- epsilon-Isopropyl) -Pro-DAlaNH2] (X1-G[d2Nal][dPhe(4-Cl)][d3Pal]S[NMeY][d(hCit)]L[Lys(iPr)]P[dA]-NH2) the figure was 10.5 pM; with `CC(C)C[C@H](NC(=O)[C@@H](CCCCNC(N)=O)NC(=O)[C@H](Cc1ccc(O)cc1)NC(=O)[C@H](CO)NC(=O)[C@@H](Cc1cccnc1)NC(=O)[C@@H](Cc1ccc(Cl)cc1)NC(=O)[C@@H](Cc1ccc2ccccc2c1)NC(=O)CNC(=O)[C@@H]1CCCO1)C(=O)N[C@@H](CCCCNC(C)C)C(=O)N1CCC[C@H]1C(=O)N[C@H](C)C(N)=O` [Example 93, N (S)-2-Tetrahydrofuroyl-Gly-D2Nal-D4ClPhe-D3Pal-Ser-Tyr-DHcit-Leu-Lys(N-epsilon-Isopropyl)-Pro-DAlaNH2] (X1-G[d2Nal][dPhe(4-Cl)][d3Pal]SY[d(hCit)]L[Lys(iPr)]P[dA]-NH2), 5.89 pM. For `CC(C)C[C@H](NC(=O)[C@@H](CCCCNC(=O)c1cccnc1)NC(=O)[C@H](Cc1ccc(O)cc1)N(C)C(=O)[C@H](CO)NC(=O)[C@@H](Cc1cccnc1)NC(=O)[C@@H](Cc1ccccc1)NC(=O)[C@@H](Cc1ccc2ccccc2c1)NC(=O)CNC(=O)[C@@H]1CCCO1)C(=O)N[C@@H](CCCCNC(C)C)C(=O)N1CCC[C@H]1C(=O)N[C@H](C)C(N)=O` [Example 94, N (S)-2-Tetrahydrofuroyl-Gly-D2Nal-DPhe-D3Pal-Ser-NMeTyr-DLys(Nic)-Leu-Lys(N-epsilon-Isopropyl)-Pro-DAlaNH2] (X1-G[d2Nal][dF][d3Pal]S[NMeY][dK](Nicotinoyl)L[Lys(iPr)]P[dA]-NH2) the value was 8.32 pM.

A word on the Kb: it is the equilibrium dissociation constant of an antagonist, usually derived from a functional assay.
